According to paper PMC9317397, “Design and Synthesis of Hepatitis B Virus (HBV) Capsid Assembly Modulators and Evaluation of Their Activity in Mammalian Cell Model” (Pharmaceuticals, 2022):
Entries after “also recorded” stand apart in the source; their conditions may differ.

Key:
[1] = target: HBV capsid assembly (full-length HBc protein, genotype D1) (Hepatitis B virus genotype D subtype ayw, UniProt P03146, A80I/T33N/V74G); assay: HBV capsid assembly in SFV1/HBc-infected HBc-producing BHK-21 cells, native agarose gel anti-HBc immunoblot; format: cell-based; settings: HBc-producing BHK-21 cells; for Effect on capsid production / mobility in initial test: 1–50 μM, 24 h (Figure 5); for Effect on Capsid Assembly / Effect on Capsid Assembly, Starting Concentration: 24 h, native agarose immunoblot; for Type of effect on HBV capsid assembly in dose-dependent experiments: 0.1–50 µM, 24 h (Figure 6)
BHK-21 cells = assay: Cytopathic effect (cell morphology, proliferation, trypan blue) in non-infected BHK-21 cells; format: cell-based, hamster; settings: non-infected BHK-21 cells, 24 h, no noticeable cytopathic effect
Description: To define HAP compound non-toxic concentrations for initial studies, non-infected BHK-21 cells were incubated with compounds at four different concentrations for 24 h (25 μM, 50 μM, 100 μM, and 200 μM), and the cytopathic effects were evaluated by analysis of cell morphology and proliferation changes. […] 1c, 1j, 1k and 4a, and 7b. The reference comp.
The cytopathic effect of the compounds was estimated by phase contrast microscopy and standard trypan blue staining, and the cells were counted using an automatic cell counter (Invitrogen). BHK-21 and HepG2.2.15 cells were incubated for 24 h with the studied compounds at […] (25, 50, 100, 150 and 200 μM) and the cell morphology was controlled under microscope to evaluate cytopathic effects (Table 1, the highest non-toxic concentration).

[2] = MTT viability assay in BHK-21 cells; format: cell-based, hamster; settings: hamster, 200 µM, read-out: Cell viability, percentage from untreated cells
Description: BHK-21 cells were incubated with different concentrations (6.125, 12.25, 25, 50, 100, and 200 µM) of the respective compounds and the cell viability was calculated as a percentage from untreated cells (100%) (Figure 7). In general, the results confirmed the morphological observation of relatively low cytotoxicity for tested compounds at concentrations below 100 µM.
Additionally, cell viability was determined by tetrazolium salt-based assay using the Vybrant MTT Cell Proliferation kit (Thermo Fisher Scientific, Waltham, MA, USA) or more sensitive CCK-8 kit (Abcam). First, the cell numbers and protocol were optimized for BHK-21 and HepG2.2.15 cells, as indicated in the MTT assay kit or CCK-8 reagent manufacturer’s protocol, and standard curves with OD values were created and evaluated.
In order to evaluate the toxicity of selected HAP compounds in the medium, 1.3 × 10^4 BHK-21 were seeded per well in 96-well plates and treated with the studied compounds for 24 h at concentrations 6.125; 12.25; 25; 50; 100; and 200 μM. Control cells without HAP compounds and MTT-free cell media were included in the experiments. The MTT test was performed according to the full protocol version (Thermo Fisher Scientific).

HBV = settings: HepG2.2.15 cells, 10 µM, six days, secreted virion DNA

Sequence of HBV capsid assembly (full-length HBc protein, genotype D1) (P03146 whole entry A80I/T33N/V74G, looked up): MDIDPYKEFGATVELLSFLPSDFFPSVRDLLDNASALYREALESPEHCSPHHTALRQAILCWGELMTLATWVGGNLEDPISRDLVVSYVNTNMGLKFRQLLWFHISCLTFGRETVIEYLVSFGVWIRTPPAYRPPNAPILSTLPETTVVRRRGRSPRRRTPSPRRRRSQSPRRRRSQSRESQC

Row | SMILES | melting point [°C] | Effect on capsid production / mobility in initial test [1] | Effect on Capsid Assembly [1] | Effect on Capsid Assembly, Starting Concentration [1] [µM] | The Highest Non-Toxic Concentration (BHK-21 cells) [µM] | Type of effect on HBV capsid assembly in dose-dependent experiments [1] | viability at 24 h, 200 µM [2] [%] | HBV DNA, % from control (HBV) [%]
1 | CCOC(=O)C1=C(C)NC(c2nccs2)=NC1c1ccccc1 (stereo not drawn) (hydrate or solvate) [1k] | 129 to 130 | – | – | – | – | – | – | –
2 | CCCCCCCCCCCCCCCC[n+]1ccc(C)cc1.Cc1ccc(S(=O)(=O)[O-])cc1 [7b] | – | did not induce a significant effect on the capsid mobility | No effect | – | – | – | – | –
3 | CCOC(=O)C1=C(C)NC(c2nccs2)=NC1c1ccccc1 (stereo not drawn) [1k] | – | misfolding of the HBV capsid | Dose dependent HBc accumulation, aggregates/or incorrect capsid structures | 1 | – | – | – | –
4 | CCCCCC[n+]1ccc(C)cc1.Cc1ccc(S(=O)(=O)[O-])cc1 [7a] | – | did not induce a significant effect on the capsid mobility | No effect | – | 50 | – | – | –
5 | O=C1OCC2=C1C(c1ccc(F)cc1Cl)N=C(c1ncc(F)cc1F)N2 (stereo not drawn) [compound 5] | – | misfolding of the HBV capsid | HBc accumulation, aggregates/or incorrect capsid structures | 50 | – | dose-dependent HBc products accumulation | – | –
6 | CCCOCCOC(=O)C1=C(C)NC(c2ncc(F)cc2F)=NC1c1ccccc1OC(F)F (stereo not drawn) (hydrate or solvate) [1g] | 164 to 165 | – | – | – | – | – | – | –
7 | CCOC(=O)c1c(C)nc(-c2nccs2)nc1-c1ccccc1 [4a] | 93 to 94 | did not induce a significant effect on the capsid mobility | No effect | – | – | – | – | –
8 | CC1=C(C(=O)O)C(c2ccc(F)cc2Cl)N=C(c2ncc(F)cc2F)N1 (stereo not drawn) [1b] | – | inhibitory effect | Dose dependent capsid signal decrease | 10 | 50 | dose-dependent HBc signal decrease | > 90 | 74.3
9 | COC(=O)C1=C(C[n+]2ccccc2)NC(c2ncc(F)cc2F)=NC1c1ccc(F)cc1Cl (stereo not drawn) [3a] | 173 to 174 | did not induce a significant effect on the capsid mobility | No effect | – | – | – | – | –
10 | CCOC(=O)C1=C(C)NC(c2nccs2)=NC1c1ccc(F)cc1 (stereo not drawn) (hydrate or solvate) [1j] | 114 to 115 | – | – | – | – | – | – | –
11 | CCOC(=O)C1=C(C)NC(c2ncc(F)cc2F)=NC1c1ccc(F)cc1 (stereo not drawn) (hydrate or solvate) [1c] | 126 to 127 | – | – | – | – | – | – | –
12 | CC1=C(C(=O)Nc2ccccn2)C(c2ccc(F)cc2Cl)N=C(c2ncc(F)cc2F)N1 (stereo not drawn) [1h] | – | – | Dose dependent capsid signal decrease | 20 | 150 | dose-dependent HBc signal decrease | > 90 | –
13 | COc1ccccc1NC(=O)C1=C(C)NC(c2ncc(F)cc2F)=NC1c1ccc(F)cc1Cl (stereo not drawn) [1i] | – | – | Dose dependent capsid signal decrease | 20 | 50 | dose-dependent HBc signal decrease | 71 | –
14 | CCCOCCOC(=O)C1=C(C)NC(c2ncc(F)cc2F)=NC1c1ccccc1OC(F)F (stereo not drawn) [1g] | – | did not induce a significant effect on the capsid mobility; also recorded: some increase in capsid band signal | Insignificant capsid amount increases | – | 50 | – | – | –
